Measurements taken from US20070098735A1, “Methods for the Elimination of Pathogens and Other Particulate Agents” (priority 2005, published 2007).

What was measured:
[1] = tested on: Murine macrophage lines (RAW264.7, J774.A1 or RAW264NO-); experiment: Phagocytosis assay in vitro (uptake of Alexa Fluor 488-labeled particles); assay type: cell-based; parameters: effect of LR-disrupting drugs on HSP70-mediated phagocytosis: dose or concentration left out as unconfirmed
Protocol: Phagocytosis Assay in vitro. RAW 264.7, RAW264.7 (NO-) and J774A.1 cells were cultured in DMEM or RPMI (RAW NO-) with 10% FCS, harvested, and washed. 3×10^5 cells/well were incubated in serum-free Earle's minimal essential medium (EMEM) in a 24-well plate for 1 hour at 37° C. Alexa Fluor® 488-labeled particles (inert polystyrene microspheres; or yeast, Saccharomyces cerevisiae or Gram-negative bacteria, Escherichia coli, 40 particles/macrophage) were added and co-incubated in a dark environment for 60 minutes in serum free EMEM with or without HSPs, LPS, or control proteins. At the end of 60 minutes incubation, the plate was covered in a dark container on ice. Specific measures were taken to exclude the fluorescence that resulted from particles that were outside of the cell or sticking to the surface of the cell. […] Specifically, trypan blue (0.8 mg/ml) was added for 60 seconds and plates were analyzed immediately using FluorImager SI (Molecular Dynamics/Amersham). Since the emission of Alexa Fluor® 488, about 519 nm at an excitation of about 490 nm, falls within the absorbance range of trypan blue (475-675 nm), the fluorescence of the sample only represents the intracellular fluorescence. External or surface-bound fluorescence is quenched. Using Student's t test, the results were analyzed and P-values were calculated.
HSP-mediated phagocytosis was quantified by measuring the internalized fluorescence measured by FluorImager SI and Relative Mean Fluorescence Intensity (RMFI) was compared between the treatment groups (as indicated). All the treatment groups were compared to medium alone using the Student's t test and significance denoted by P<0.01. The error bar represents one standard deviation. The results shown are a cumulative analysis of 3 experiments, 3 wells/group.

[2] = tested on: lipid raft (LR) microdomain of the macrophage plasma membrane; experiment: Binding of exogenous HRP-labeled HSP70 to purified lipid raft fractions; parameters: species or system murine; conditions: MCD (30 mM); HRP-labeled HSP70 100 μg/ml; Triton X-100
Protocol: Purification of lipid rafts. Lipid rafts were purified as DRMs (detergent resistant membrane) using non-ionic detergents following sucrose gradient centrifugation. […] After incubation, cells were washed 3× with PBS and lysed with 2 ml MES (4-morpholinoethanesulfonic acid) buffered saline (MBS; 150 mM NaCl, 20 mM MES, pH 6.5, […] and 5 mM iodoacetamide) containing 0.5% Triton X-100 or 1% for 30 minutes on ice or 7 minutes at 37° C. respectively. The cells were mixed with an equal volume of 90% sucrose in MEB buffer (150 mM NaCl, 20 mM MES [pH 6.5]) and placed at the bottom of the centrifuge tube. […] Fractions of 1 ml each were collected from the bottom of tube and each fraction was analyzed by SDS-PAGE and immunoblotting.
Briefly, RAW264.7 macrophages were treated with exogenous HRP-labeled HSP70 (100 μg/ml) or were left untreated for 60 minutes and washed with PBS three times to remove free HSPs. […] These fractions obtained (light: LR and heavy: non-LR) were then analyzed using immunoblotting to detect HRP activity of HSP70-HRP complexes or tested for the presence of an LR-associated ganglioside GM1 by using HRP-cholera toxin B. Similarly, these fractions were tested for the amount of cholesterol using (Biovision Research Products, CA). […]

macrophages = experiment: Trypan blue exclusion viability of treated macrophages; conditions: MCD-treated cells
[3] = tested on: macrophage phagocytosis in wounded mice; experiment: Inhibition of phagocytosis in vivo by gadolinium chloride, wound closure; conditions: GdCl3 10 mg/kg IV day -1 and day 0; HSP70 30 μg/dose SC day 0
Protocol: Inhibition of Phagocytosis In vivo. Intravenous injection of gadolinium chloride inhibits phagocytosis of macrophages without affecting their viability or affecting other cell types. Mice were treated (on day minus-1 and day 0) with GdCl3 (10 mg/kg body weight in 200 μl of distilled water) administered intravenously via the retro-orbital venous plexus. Subsequently the mice were wounded as previously described (Day 0) and treated with PBS and HSP70 (30 μg/dose) given subcutaneously on day 0.
Treatment groups shown are (i) HSP70 alone; (ii) HSP70+GdCl3; (iii) PBS alone; and (iv) PBS+GdCl3. *P values were obtained using the Student's t-test by comparing the percent inhibition in wound closure of gadolinium chloride plus treatment to percent wound closure of the treatment alone.

Molecule | dose dependence of inhibitory effect on macrophage response to HSP70 ([1]; MCD 0-30 mM, HSP70 100 μg/ml) | effect of LR-disrupting drugs on HSP70-mediated phagocytosis ([1]; nystatin or MCD, labeled yeast 40 particles/macrophage) | effect on binding of exogenous HSP70 to lipid rafts [2] | viability (trypan blue exclusion) (macrophages) [%] | inhibition of the HSP70-mediated effects on wound healing [3]
methyl-β-cyclodextrin [MCD] | titratable | HSP70-mediated phagocytosis was inhibited | significant reduction in the binding of exogenously administered HSP70 | 95 | 
[Cl][Gd]([Cl])[Cl] [GdCl3, gadolinium chloride] |  |  |  |  | up to 67%
